Entries after “also recorded” stand apart in the source; their conditions may differ.

In series [1] the target is T1, full-length firefly luciferase (FLuc) (Photinus pyralis, UniProt P08659).
T1 construct: or full length Firefly luciferase (150 nM final concentration)
It is filed as biochemical. To be noted: FLuc 150 nM, compound 30 μM.

Series [2] deals with T2, DENV2 NS2B-CLuc-NS3-119-NLuc-NS3 120-to-NS3_C (N2CN3N) (UniProt P08659+P14340).
T2 construct: pairs of primers of 1394F and 1440C for NS2B and 1476F and 1660C for NS3; made in house; host or cells: Escherichia coli Rosetta 2(DE3)
It is filed as biochemical. The note with it: for suppression of NPGB-induced SLC enhancement / effect of compound alone on background SLC: compound 40 μM; for suppression of NPGB-induced SLC enhancement: N2CN3N 150 nM; for effect of compound alone on background SLC: no NPGB, compared to DMSO; for inhibition of NPGB-induced SLC enhancement, concentration series: serial dilution of compound.

A further series addresses T3, N2CN3N A125C mutant (UniProt P08659+P14340).
T3 construct: pairs of primers of 1394F and 1440C for NS2B and 1476F and 1660C for NS3; made in house; host or cells: Escherichia coli Rosetta 2(DE3)
It is filed as biochemical.

The test system of series [3] is DENV2. Briefly: microbe, parasite or virus in culture. To be noted: Dengue virus, A549, 48 h, read-out: EC50, DENV2 viral reduction.
The next series can be described thus: in vitro. To be noted: human.
Series [4] concerns DENV2. The note with it: A549 cells, compound at 1, 10 and 100 μM, 48 h post-infection.
The next series addresses T4, N2CN3N A125W mutant (UniProt P08659+P14340).
T4 construct: pairs of primers of 1394F and 1440C for NS2B and 1476F and 1660C for NS3; made in house; host or cells: Escherichia coli Rosetta 2(DE3)
It is filed as biochemical. To be noted: A125W mutant 150 nM, NPGB 30 μM.

T2 sequence (P08659 whole entry, looked up, other chains not shown): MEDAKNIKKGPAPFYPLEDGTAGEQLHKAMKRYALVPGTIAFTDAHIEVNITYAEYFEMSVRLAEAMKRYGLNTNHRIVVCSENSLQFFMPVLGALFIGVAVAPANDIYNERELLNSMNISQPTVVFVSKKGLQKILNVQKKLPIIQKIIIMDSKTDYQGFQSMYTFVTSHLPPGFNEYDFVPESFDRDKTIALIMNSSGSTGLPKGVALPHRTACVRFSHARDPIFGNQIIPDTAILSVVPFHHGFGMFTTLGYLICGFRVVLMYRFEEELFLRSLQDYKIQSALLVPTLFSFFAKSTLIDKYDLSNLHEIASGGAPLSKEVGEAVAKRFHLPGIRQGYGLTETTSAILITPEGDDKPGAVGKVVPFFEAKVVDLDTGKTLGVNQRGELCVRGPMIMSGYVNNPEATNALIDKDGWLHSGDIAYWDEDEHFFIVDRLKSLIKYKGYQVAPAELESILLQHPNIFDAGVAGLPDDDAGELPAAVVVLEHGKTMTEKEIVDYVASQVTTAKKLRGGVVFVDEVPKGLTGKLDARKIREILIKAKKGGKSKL
T1 sequence (P08659 whole entry): as the sequence (P08659 whole entry, looked up, other chains not shown) above

For `O=C(O)c1cc(SSc2ccc([N+](=O)[O-])c(C(=O)O)c2)ccc1[N+](=O)[O-]` [DTNB, 5,5'-dithio-bis-[2-nitrobenzoic acid]], in series [1], the “effect on luciferase activity of full-length FLuc” value is given as “do not affect the luciferase activity; also recorded: did not significantly affect the luciferase activity”. Besides, in series [2], the “effect on NPGB-triggered SLC enhancement of WT N2CN3N” value is “significantly abolished the active site inhibitor NPGB-triggered SLC enhancement” and the “effect on luciferase (baseline SLC) activity of WT N2CN3N” value is reported as “did not significantly affect the luciferase activity”. The “effect on baseline SLC signal of A125C mutant” value at N2CN3N A125C mutant (DTNB 30 μM alone) is “only slightly decreased the baseline SLC signal”. Also, the “effect on NPGB-triggered SLC enhancement of A125C mutant” value on N2CN3N A125C mutant (DTNB 30 μM with NPGB 30 μM) was “completely abolished the SLC enhancement”.
As for `O=C(Nc1ccc(Nc2ccncc2)cc1)c1ccc(Nc2ccnc3ccc([N+](=O)[O-])cc23)cc1` [NSC146771], in the series with DENV2 [3], the EC50 is greater than 100 µM. The molecule further came in with a CC50 in “in vitro” of 82 µM. Moreover, in series [2] (NPGB 30 μM), the “suppression of NPGB-induced SLC enhancement” value is “abolish the SLC enhancement induced by NPGB to the background level” and the “inhibition of NPGB-induced SLC enhancement, concentration series” value was “did not inhibit the NPGB-induced SLC enhancement until very high concentration”. Moreover, the “effect of compound alone on background SLC” value in series [2] is reported as “did not have significant effect on background SLC”. In the series with DENV2 [4], the “DENV2 viral production (titer) relative to DMSO control” value is “no appreciable effect; also recorded: did not show any inhibition”.
In the case of `Cn1ccc(=Nc2ccc(NC(=O)c3ccc(N=c4ccn(C)c5ccc([N+](=O)[O-])cc45)cc3)cc2)cc1` [NSC260594], the concentration for a half-maximal effect (EC50) in the series with DENV2 [3] was found to be 13.5 µM. In the series “in vitro”, this molecule displayed a CC50 greater than 500 µM. Moreover, in series [2] (NPGB 30 μM), the “suppression of NPGB-induced SLC enhancement” value is recorded as “abolish the SLC enhancement induced by NPGB to the background level” and the “inhibition of NPGB-induced SLC enhancement, concentration series” value was “did not inhibit the NPGB-induced SLC enhancement until very high concentration”. Moreover, the “effect of compound alone on background SLC” value in series [2] is given as “did not have significant effect on background SLC”. Besides, the “DENV2 viral production (titer) relative to DMSO control” value in the series on DENV2 [4] was “significantly reduced”.
As to Nitrophenyl p-guanidinobenzoate [NPGB], the “SLC enhancement upon addition of active-site inhibitor” value at N2CN3N A125W mutant was “SLC enhancement was not observed”. In addition, the “effect on luciferase activity of full-length FLuc” value in series [1] is recorded as “do not affect the luciferase activity; also recorded: did not have any effects”. In addition, the “SLC enhancement compared to DMSO control” value in series [2] (WT N2CN3N 150 nM, NPGB 30 μM) is given as 4.2 fold; on N2CN3N A125C mutant (A125C mutant 150 nM, NPGB 30 μM), 2.2 fold.

What is called EC50 is the concentration that produces a half-maximal response.

The record behind these values is article PMC5462475, “A conformational switch high-throughput screening assay and allosteric inhibition of the flavivirus NS2B-NS3 protease” (PLoS Pathogens, 2017).
